Data reported in patent US20050239755A1, “External preparation for inhibiting keloid formation” (priority 2002, published 2005).

Key:
[1] = tested on: human fibroblast derived from keloid; assay: Test of inhibition of collagen gel shrinking (human fibroblast derived from keloid); assay type: cell-based; details: for Shrinking rate: after 24 hours
Description: (§1) Test of Inhibition of Collagen Gel Shrinking. A collagen solution (1.5 mg/mL) (1 mL) and a suspension of human normal fibroblast or human fibroblast derived from keloid (1×10^5 cells) (1 mL) were added to a Petri dish (diameter; 35 mm) and mixed. The mixture was warmed for about 10 minutes in an incubator (37° C., 5% CO2) to prepare collagen gel. Further broth (1 mL) was added over thereon and was left for about 3 hours in the incubator (37° C., 5% CO2). The collagen gel was released from the Petri dish, and thereto was added a solution containing acetylsalicylic acid (its final concentration was respectively 0, 0.05, 0.5, 5, and 50 μM). The suspension was cultured in the incubator (37° C., 5% CO2) and after 24 hours the shrinking rate was evaluated.

human normal fibroblast = assay: Test of inhibition of collagen gel shrinking (human normal fibroblast); assay type: cell-based; details: for Shrinking rate of collagen: after 24 hours
Description: as §1

## CC(=O)Oc1ccccc1C(=O)O [Acetylsalicylic acid]
[1]; Table 10
  shrinking of collagen (in words): inhibited
[1]; acetylsalicylic acid 0.05 μM
  Shrinking rate: 21%
[1]; acetylsalicylic acid 0.5 μM
  Shrinking rate: 19%
[1]; acetylsalicylic acid 5 μM
  Shrinking rate: 24%
[1]; acetylsalicylic acid 50 μM
  Shrinking rate: 20%
Human normal fibroblast; Table 9
  shrinking of collagen (in words): inhibited
Human normal fibroblast; acetylsalicylic acid 0.05 μM
  Shrinking rate of collagen: 23%
Human normal fibroblast; acetylsalicylic acid 0.5 μM
  Shrinking rate of collagen: 12%
Human normal fibroblast; acetylsalicylic acid 5 μM
  Shrinking rate of collagen: 10%
Human normal fibroblast; acetylsalicylic acid 50 μM
  Shrinking rate of collagen: 14%
